Data reported in patent US7759373B2, “Large conductance calcium-activated K channel opener” (Mitsubishi Tanabe Pharma Corporation, priority 2001, dated 2010).
Like-named read-outs stand apart in the source and are kept apart here.

Assays:
[1] = system: rhythmic bladder contractions induced by substance P; assay: Inhibitory effect on the rhythmic bladder contractions induced by substance P in anesthetized rats; format: in vivo, rat; conditions: time during which frequency of rhythmic contraction was completely inhibited, 0.25 mg/kg of the compound, substance P infusion
How it was run: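 Value is duration (min) of complete inhibition of bladder contractions, ranked A/B/C at 20 and 10 min cut-offs. Intravenous dosing (0.5% Tween 80 saline) in female SD rats under urethane, bladder saline-filled and contractions maintained by substance P infusion, 0.33 μg/kg/min.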

[2] = system: isolated rabbit urinary bladder; assay: Relaxation effect on potassium-induced contraction of isolated rabbit urinary bladder; format: cell-based; conditions: 50% relaxation concentration, high-K+ (30 mM) pre-contracted rabbit bladder strips, relaxation as percentage of the maximum produced by 0.1 mM papaverine, read-out: EC50 value range
Description: Relaxation effect on potassium-induced contraction of isolated rabbit urinary bladder
Urinary bladder was isolated from Male NZW rabbits (2.0-3.5 kg) and immersed in ice-cold Krebs-bicarbonate solution (in mM: 118 NaCl, 4.7 KCl, 1.2, 2.5 CaCl2, MgSO4, 1.2 KH2PO4, 11 glucose, 25 NaHCO3). The urinary bladder was cut into longitudinal strips (5 mm length, 3-4 mm width) after mucosal layer was removed. Preparations were mounted in organ baths containing 10 ml of Krebs solution maintained at 37° C. and gassed with 95% O2/5% CO2. Accordingly, preparations were stretched with an initial tension of 2.0±1.0 g, and changes in isometric tension were measured by force-displacement transducer. The preparations were pre-contracted by changing organ-bath solution into high-K^+ (30 mM) Krebs solution (in mM: 92.7 NaCl, 30 KCl, 1.2, 2.5 CaCl2, MgSO4, 1.2 KH2PO4, 11 glucose, 25 NaHCO3).
After stable tension was obtained, compounds were added into organ baths cumulatively (10^−8M-10^−4M). The effects of compounds were expressed as a percentage of the maximum relaxation produced by 0.1 mM papaverine. 50% relaxation concentration (EC50) was calculated and EC50 value range (μM) of the compounds of the present invention was shown in the following Table 64 with a rank of A, B or C. These ranges are as mentioned below. 3≧C≧1≧B≧0.5≧A

`CN(c1ccc(-c2nc(CC(=O)O)c(-c3ccc(Cl)s3)o2)cn1)C1CC1` [Preparation Example 531] was tested, and the “100% inhibition time range” value [1] was “C (A≧20>B≧10>C (minute))” and the EC50 ([2]; Oryctolagus cuniculus) was 1 to 3 µM.

With `CCc1[nH]c(-c2ccsc2C(C)O)nc1-c1cccnc1.Cl.Cl` (stereo not drawn) [Preparation Example 486, 2-[2-(1-hydroxyethyl)thiophen-3-yl]-5-ethyl-4-(3-pyridyl)-imidazole dihydrochloride] the “100% inhibition time range” value [1] was “B (A≧20>B≧10>C (minute))” and the EC50 ([2]; Oryctolagus cuniculus) was 1 to 3 µM.

In the case of `O=C(O)Cc1nc(-c2ccc(Cl)cc2)oc1C1CCCC1` [Preparation Example 265], the EC50 ([2]; Oryctolagus cuniculus) is reported as 1 to 3 µM.

`CSc1ccc(-c2nc(CC(=O)[O-])c(-c3cccs3)o2)cn1.[Na+]` [Preparation Example 366, 2-(6-methylthiopyridin-3-yl)-5-(2-thienyl)oxazol-4-yl acetic acid sodium salt] was tested, and the “100% inhibition time range” value [1] was “C (A≧20>B≧10>C (minute))” and the EC50 ([2]; Oryctolagus cuniculus) was ≤ 0.5 µM.

With `CCc1nc(-c2ccc(C#N)s2)[nH]c1-c1cccnc1` [Preparation example 16] the “100% inhibition time range” value [1] was “B (A≧20>B≧10>C (minute))” and the EC50 ([2]; Oryctolagus cuniculus) was 1 to 3 µM.

In the case of `CCCCc1nc(-c2ccc(F)cc2)[nH]c1-c1ccsc1` [Preparation Example 170], the EC50 ([2]; Oryctolagus cuniculus) is reported as 1 to 3 µM.

`CCc1nc(-c2ccc(F)cc2)[nH]c1-c1nccs1` [Preparation example 51] was tested, and the EC50 ([2]; Oryctolagus cuniculus) was ≤ 0.5 µM.

In the case of `Cl.N#CCCc1[nH]c(-c2ccc(F)cc2)nc1-c1ccccc1O` [Preparation Example 350, 5-(2-cyanoethyl)-2-(4-fluorophenyl)-4-(2-hydroxyphenyl)-imidazole hydrochloride], the “100% inhibition time range” value [1] is reported as “B (A≧20>B≧10>C (minute))” and the EC50 ([2]; Oryctolagus cuniculus) is reported as 1 to 3 µM.

`O=C(O)Cc1nc(-c2ccc(F)cc2)oc1-c1ccc[nH]1` [Preparation Example 524] was tested, and the “100% inhibition time range” value [1] was “B (A≧20>B≧10>C (minute))” and the EC50 ([2]; Oryctolagus cuniculus) was 1 to 3 µM.

In the case of `CCc1nc(-c2ccc(C#N)cc2)[nH]c1-c1cccnc1` [Preparation example 53], the “100% inhibition time range” value [1] is reported as “C (A≧20>B≧10>C (minute))” and the EC50 ([2]; Oryctolagus cuniculus) is reported as 0.5 to 1 µM.

`CCCc1nc(-c2cccc3ccccc23)[nH]c1-c1ccccc1` [Preparation example 36] showed an EC50 ([2]; Oryctolagus cuniculus) of 1 to 3 µM.

With `O=C(O)Cc1nc(-c2nc3ccccc3s2)oc1-c1ccc(Cl)s1` [Preparation Example 446] the “100% inhibition time range” value [1] was “C (A≧20>B≧10>C (minute))” and the EC50 ([2]; Oryctolagus cuniculus) was ≤ 0.5 µM.

`CCc1nc(-c2ccc(Cl)cc2)[nH]c1-c1cccnc1` [Preparation example 56] was tested, and the “100% inhibition time range” value [1] was “B (A≧20>B≧10>C (minute))” and the EC50 ([2]; Oryctolagus cuniculus) was 0.5 to 1 µM.

For `CCc1nc(-c2csc(Br)c2)[nH]c1-c1cccnc1` [Preparation example 19], the EC50 ([2]; Oryctolagus cuniculus) was ≤ 0.5 µM.

For `O=C(O)Cc1nc(-c2ccc(F)cc2)oc1-c1ccc2occc2c1` [Preparation Example 285], the “100% inhibition time range” value [1] was “B (A≧20>B≧10>C (minute))” and the EC50 ([2]; Oryctolagus cuniculus) was 1 to 3 µM.

For `O=C(O)Cc1nc(-c2cc3ccc(F)cc3s2)oc1-c1ccc(Cl)s1` [Preparation Example 451], the “100% inhibition time range” value [1] was “B (A≧20>B≧10>C (minute))” and the EC50 ([2]; Oryctolagus cuniculus) was 1 to 3 µM.

For `CCc1nc(-c2ccc(F)cc2)[nH]c1-c1cnccn1` [Preparation example 49], the EC50 ([2]; Oryctolagus cuniculus) was 0.5 to 1 µM.

`CCCc1nc(-c2ccccc2)[nH]c1-c1ccccc1` [Preparation Example 180] was tested, and the EC50 ([2]; Oryctolagus cuniculus) was 1 to 3 µM.

Compound `CCCc1nc(-c2ccc(F)cc2)[nH]c1-c1ccccn1` [Preparation example 97] has an EC50 ([2]; Oryctolagus cuniculus) of 0.5 to 1 µM.

With `CN1CCc2cc(-c3nc(CC(=O)O)c(-c4ccc(Cl)s4)o3)ccc21` [Preparation Example 453] the “100% inhibition time range” value [1] was “C (A≧20>B≧10>C (minute))” and the EC50 ([2]; Oryctolagus cuniculus) was 0.5 to 1 µM.

For `O=C(O)Cc1nc(-c2ccccc2O)oc1-c1cccs1` [Preparation Example 277], the “100% inhibition time range” value [1] was “C (A≧20>B≧10>C (minute))” and the EC50 ([2]; Oryctolagus cuniculus) was 0.5 to 1 µM.

In the case of `CN(C)c1ccc(-c2nc(-c3ccc(Cl)cc3)c(CC(=O)O)o2)cn1` [Preparation Example 514], the “100% inhibition time range” value [1] is reported as “B (A≧20>B≧10>C (minute))” and the EC50 ([2]; Oryctolagus cuniculus) is reported as 0.5 to 1 µM.

`CN(C)c1ccc(-c2nc(-c3cccs3)c(CC(=O)O)s2)cn1` [Preparation Example 579] was tested, and the “100% inhibition time range” value [1] was “C (A≧20>B≧10>C (minute))” and the EC50 ([2]; Oryctolagus cuniculus) was 0.5 to 1 µM.

With `CCCc1nc(-c2ccc(F)cc2)[nH]c1-c1ccsc1` [Preparation Example 172] the “100% inhibition time range” value [1] was “C (A≧20>B≧10>C (minute))” and the EC50 ([2]; Oryctolagus cuniculus) was 1 to 3 µM.

`O=C(O)Cc1nc(-c2ccc(F)cc2)oc1-c1ccc(Cl)cc1` [Preparation Example 243] was tested, and the “100% inhibition time range” value [1] was “A (A≧20>B≧10>C (minute))” and the EC50 ([2]; Oryctolagus cuniculus) was ≤ 0.5 µM.

For `CCCc1nc(-c2ccsc2)[nH]c1-c1ccccc1` [Preparation example 33], the EC50 ([2]; Oryctolagus cuniculus) was ≤ 0.5 µM.

In the case of `O=C(O)Cc1nc(-c2ccc3occc3c2)oc1-c1cccs1` [Preparation Example 269], the “100% inhibition time range” value [1] is reported as “B (A≧20>B≧10>C (minute))” and the EC50 ([2]; Oryctolagus cuniculus) is reported as ≤ 0.5 µM.

With `O=C(O)Cc1sc(-c2ccc(F)cc2)nc1-c1ccsc1` [Preparation Example 594] the “100% inhibition time range” value [1] was “C (A≧20>B≧10>C (minute))” and the EC50 ([2]; Oryctolagus cuniculus) was ≤ 0.5 µM.

With `Cc1cc(-c2oc(-c3ccc(F)cc3)nc2CC(=O)O)sc1Cl` [Preparation Example 257] the “100% inhibition time range” value [1] was “B (A≧20>B≧10>C (minute))” and the EC50 ([2]; Oryctolagus cuniculus) was ≤ 0.5 µM.

`O=C(O)Cc1nc(-c2ccc3occc3c2)oc1-c1csc(Cl)c1` [Preparation Example 287] was tested, and the “100% inhibition time range” value [1] was “B (A≧20>B≧10>C (minute))” and the EC50 ([2]; Oryctolagus cuniculus) was ≤ 0.5 µM.

`O=C(O)Cc1nc(-c2ccc(F)cc2)oc1-c1ccc(C(F)(F)F)cc1` [Preparation Example 244] was tested, and the “100% inhibition time range” value [1] was “B (A≧20>B≧10>C (minute))” and the EC50 ([2]; Oryctolagus cuniculus) was 1 to 3 µM.

In the case of `CCc1nc(-c2ccc(F)cc2)[nH]c1-c1cscn1` [Preparation example 52], the EC50 ([2]; Oryctolagus cuniculus) is reported as ≤ 0.5 µM.

For `CCCc1nc(-c2ccc(F)cc2)[nH]c1-c1ccccc1` [Preparation example 88], the “100% inhibition time range” value [1] was “B (A≧20>B≧10>C (minute))” and the EC50 ([2]; Oryctolagus cuniculus) was 1 to 3 µM.

With `Cc1nc(-c2ccc(F)cc2)[nH]c1-c1cccnc1` [Preparation Example 187] the “100% inhibition time range” value [1] was “B (A≧20>B≧10>C (minute))” and the EC50 ([2]; Oryctolagus cuniculus) was 0.5 to 1 µM.

For `CCCc1nc(-c2ccc[nH]2)[nH]c1-c1ccccc1` [Preparation example 35], the EC50 ([2]; Oryctolagus cuniculus) was 1 to 3 µM.

With `C[S+]([O-])Cc1[nH]c(-c2ccc(F)cc2)nc1-c1ccccc1` (stereo not drawn) [Preparation example 639] the “100% inhibition time range” value [1] was “C (A≧20>B≧10>C (minute))” and the EC50 ([2]; Oryctolagus cuniculus) was 1 to 3 µM.

With `O=C(O)Cc1nc(-c2ccc3occc3c2)oc1-c1ccsc1` [Preparation Example 255] the “100% inhibition time range” value [1] was “B (A≧20>B≧10>C (minute))” and the EC50 ([2]; Oryctolagus cuniculus) was 1 to 3 µM.

With `CCCc1nc(-c2ccc(F)cc2)[nH]c1-c1cccc(OC)c1` [Preparation example 96] the EC50 ([2]; Oryctolagus cuniculus) was 1 to 3 µM.

In the case of `COc1ccc(-c2nc(-c3cccs3)c(CC(=O)O)o2)cc1` [Preparation Example 507], the EC50 ([2]; Oryctolagus cuniculus) is reported as ≤ 0.5 µM.

`CN(C)c1ccc(-c2nc(-c3cccs3)c(CC(=O)O)o2)cn1` [Preparation Example 506] showed an EC50 ([2]; Oryctolagus cuniculus) of 0.5 to 1 µM.

For `COc1ccc(-c2nc(-c3ccsc3)c(CC(=O)O)s2)cc1` [Preparation Example 597], the EC50 ([2]; Oryctolagus cuniculus) was ≤ 0.5 µM.

`CC(C)c1nc(-c2ccc(F)cc2)[nH]c1-c1ccsc1` [Preparation Example 169] showed an EC50 ([2]; Oryctolagus cuniculus) of 1 to 3 µM.

Work on `CCCc1nc(-c2ccccn2)[nH]c1-c1cccs1` [Preparation example 5] yielded an EC50 ([2]; Oryctolagus cuniculus) of 1 to 3 µM.

With `Fc1ccc(-c2nc(CC(F)(F)F)c(-c3ccsc3)[nH]2)cc1` [Preparation Example 173] the EC50 ([2]; Oryctolagus cuniculus) was 1 to 3 µM.

With `CSCc1nc(-c2cccc(F)c2)[nH]c1-c1ccccc1` [Preparation example 131] the EC50 ([2]; Oryctolagus cuniculus) was 1 to 3 µM.

`CCc1nc(-c2ccc(C)nc2)[nH]c1-c1ccsc1` [Preparation example 81] gave an EC50 ([2]; Oryctolagus cuniculus) of 1 to 3 µM.

`COCc1nc(-c2ccc(F)cc2)[nH]c1-c1ccccc1` [Preparation example 121] showed an EC50 ([2]; Oryctolagus cuniculus) of 1 to 3 µM.

Compound “5-(5-chlorothiophen-2-yl)-2-(4-fluorophenyl)oxazole-4-yl propionic acid sodium salt [Preparation Example 339]” has an EC50 [2] of 1 to 3 µM.

`O=C(O)Cc1[nH]c(-c2cc3ccccc3s2)nc1-c1ccc(Cl)cc1` [Preparation Example 355] was tested, and the EC50 ([2]; Oryctolagus cuniculus) was ≤ 0.5 µM.

With `CCc1nc(-c2ccc(F)cc2)[nH]c1-c1ccccc1OC` [Preparation example 84] the EC50 ([2]; Oryctolagus cuniculus) was ≤ 0.5 µM.

Compound `CCCc1nc(-c2ccccc2[N+](=O)[O-])[nH]c1-c1ccccc1` [Preparation example 39] has an EC50 ([2]; Oryctolagus cuniculus) of 1 to 3 µM.

Compound `CCCc1nc(-c2cc3ccccc3o2)[nH]c1-c1ccccc1` [Preparation example 38] has an EC50 ([2]; Oryctolagus cuniculus) of 1 to 3 µM.

In the case of `CCOC(=O)C(N)c1nc(-c2ccc(F)cc2)oc1-c1ccc(Cl)s1` (stereo not drawn) [Preparation Example 372, ethyl 2-amino-2-[5-(5-chlorothiophen-2-yl)-2-(4-fluorophenyl)-oxazol-4-yl]acetate], the EC50 ([2]; Oryctolagus cuniculus) is reported as 1 to 3 µM.

`CCc1nc(-c2cccc(C#N)c2)[nH]c1-c1cccnc1` [Preparation example 57] showed an EC50 ([2]; Oryctolagus cuniculus) of 1 to 3 µM.

In the case of `COc1ccc(-c2nc(CC(=O)O)c(-c3ccc(Cl)cc3)o2)cc1` [Preparation Example 475], the “100% inhibition time range” value [1] is reported as “B (A≧20>B≧10>C (minute))”.
